In PMC12528653, “Functional characterization of key enzymes involved in the biosynthesis of distinctive flavonoids and stilbenoids in Morus notabilis” (Horticulture Research, 2025):

Tests used:
Assay in all cases: HPLC product assay, relative activity vs wild type
Type in all cases: biochemical
MnFLS [1] = biological target: T1, MnFLS (Morus notabilis, UniProt W9RQ78, T117S); conditions: 100 μM substrate; 2-oxoglutarate, ascorbate, FeSO4; Tris-HCl pH 7.0, 30°C, 1 h
T1 construct: gene L484_013110; full-length ORF (1008 bp, 335 aa) in pET32a, E. coli BL21(DE3), purified recombinant

MnFLS [2] = biological target: T2, MnFLS (Morus notabilis, UniProt W9RQ78, K202V); conditions: 100 μM substrate; 2-oxoglutarate, ascorbate, FeSO4; Tris-HCl pH 7.0, 30°C, 1 h
T2 construct: gene L484_013110; full-length ORF (1008 bp, 335 aa) in pET32a, E. coli BL21(DE3), purified recombinant

MnFLS [3] = biological target: T3, MnFLS (Morus notabilis, UniProt W9RQ78, T117I); conditions: 100 μM substrate; 2-oxoglutarate, ascorbate, FeSO4; Tris-HCl pH 7.0, 30°C, 1 h
T3 construct: gene L484_013110; full-length ORF (1008 bp, 335 aa) in pET32a, E. coli BL21(DE3), purified recombinant

MnFLS [4] = biological target: T4, MnFLS (Morus notabilis, UniProt W9RQ78, L224M); conditions: 100 μM substrate; 2-oxoglutarate, ascorbate, FeSO4; Tris-HCl pH 7.0, 30°C, 1 h; wild-type residue also printed as Met224
T4 construct: gene L484_013110; full-length ORF (1008 bp, 335 aa) in pET32a, E. coli BL21(DE3), purified recombinant
T4 sequence (W9RQ78 entry or part of it L224M): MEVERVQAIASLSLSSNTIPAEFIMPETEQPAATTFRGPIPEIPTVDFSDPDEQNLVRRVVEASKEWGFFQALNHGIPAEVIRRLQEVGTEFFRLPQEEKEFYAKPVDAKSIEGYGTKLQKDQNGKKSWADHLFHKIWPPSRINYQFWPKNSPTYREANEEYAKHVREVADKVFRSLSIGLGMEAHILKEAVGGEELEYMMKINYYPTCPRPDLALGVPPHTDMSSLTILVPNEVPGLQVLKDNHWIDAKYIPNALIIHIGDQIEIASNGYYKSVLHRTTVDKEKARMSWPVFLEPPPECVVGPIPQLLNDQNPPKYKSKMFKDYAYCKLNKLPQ

T3 sequence (W9RQ78 entry or part of it T117I): as the sequence (W9RQ78 entry or part of it L224M) above, with T117I, M224L counted along it
T2 sequence (W9RQ78 entry or part of it K202V): as the sequence (W9RQ78 entry or part of it L224M) above, with K202V, M224L counted along it
T1 sequence (W9RQ78 entry or part of it T117S): as the sequence (W9RQ78 entry or part of it L224M) above, with T117S, M224L counted along it

Compound	HPLC product assay, relative activity vs wild type (MnFLS [1])	HPLC product assay, relative activity vs wild type (MnFLS [2])	HPLC product assay, relative activity vs wild type (MnFLS [3])	HPLC product assay, relative activity vs wild type (MnFLS [4])
O=C1c2c(O)cc(O)cc2O[C@H](c2ccc(O)cc2)[C@H]1O [dihydrokaempferol]	T117S resulted in significant enhancement of activity for both naringenin and dihydrokaempferol as substrates	the mutant K202V suffered an almost complete loss of enzymatic function	replacing the Thr117 with Ile led to reduced activity	The variant L224M facilitated the conversion of dihydrokaempferol to kaempferol
O=C1C[C@@H](c2ccc(O)cc2)Oc2cc(O)cc(O)c21 [naringenin]	T117S resulted in significant enhancement of activity for both naringenin and dihydrokaempferol as substrates	the mutant K202V suffered an almost complete loss of enzymatic function	replacing the Thr117 with Ile led to reduced activity	promoted an increased synthesis of dihydrokaempferol and kaempferol from naringenin
